Data published in US20160113900A1, “INHIBITORS OF MITOCHONDRIAL STAT3 AND USES THEREOF IN MODULATION OF MAST CELL EXOCYTOSIS” (Yissum Research Development Company of the Hebrew …, priority 2014, published 2016).

Tests used:
RBL cells [1] = test: Oxygen consumption (Seahorse XF analyzer) in RBL cells; type: cell-based, rat; conditions: 40 μM U0126
Experimental: (§1) RBL-2H3 cells were maintained in RPMI 1640 medium as previously described1. Bone marrow was isolated from 5-6 week-old mice, and BMMC were cultured in RPMI medium supplemented with 20 ng/ml interleukin-3 (IL-3) and 20 ng/ml SCF as previously described2, 3. Cells were generally grown for a minimum of 4 weeks and used when >90% of the population expressed FcεRI. BMMC and RBL cells were sensitized first with anti-DNP IgE monoclonal antibody (SPE-7; Sigma-Aldrich Corp.) and then challenged with DNP-BSA (Sigma-Aldrich Corp.). IgE antibody was centrifuged (18,000 g, 5 min) before use to remove aggregates. […] For glycolysis elimination cells were maintained in glucose-free RPMI supplemented with 10% dialyzed fetal calf serum and 5 mM galactose.
Oxygen consumption rate (OCR) was measured using an XF24 extracellular flux analyzer (Seahorse Biosciences, North Billeric, Mass., USA).

RBL cells [2] = test: β-Hexosaminidase release assay (degranulation) in RBL cells; type: cell-based, rat
Experimental: as §1
1×104 RBL or 3×104 BMMC were immunologically activated as described above. After IgE incubation, the cells were washed three times with 5 mL of degranulation buffer (NaCl 130 mM, KCl 5 mM, Glucose 5.6 mM, MgCl2 1 mM, CaCl2 1.2 mM, Hepes pH 7.4 10 mM, BSA 0.1%) and resuspended in 200 μL of the same buffer with DNP-albumin for 30 min. The release of β-hexosaminidase was determined in triplicates in a 96-well plate. Aliquots (20 μL) of supernatants and cell lysates were incubated for 30 minutes with 100 μL of substrate solution (1.3 mg/mL p-nitrophenyl-b-D-2-acetamido-2-deoxyglucopyranozide in 0.1 M citrate [pH 4.51]). The reaction was stopped by the addition of 200 μL of 0.2 M glycine (pH 10.7). The plate OD was read in an enzyme-linked immunosorbent assay (ELISA) reader at a wavelength of 405 nm Percent release values for each experimental condition were calculated3.

RBL cells [3] = test: ATP determination (ATPLite luminescence) in RBL cells; type: cell-based, rat; conditions: immunologically activated RBL cells, 20 min pre-treatment with 40 μM U0126
Experimental: as §1
ATP levels were measured using the ATPLite luminescence-based assay according to the manufacturer's instructions (Perkin Elmer, Waltham, Mass., USA).

[4] = tested on: STAT3 serine 727 phosphorylation; test: Western blot of STAT3 serine 727 phosphorylation in activated RBL cells; type: cell-based, rat
Experimental: RBL cells were washed once in cold PBS prior to homogenization. 9×10^6 cells were homogenized in buffer A (320 mm sucrose, 5 mm Tris, 2 mm EGTA, pH 7.4) with 10 strokes of a Teflon Dounce homogenizer. The procedure was performed at 4° C. The homogenate was centrifuged for 3 min at 2000 g and the supernatant kept. This was repeated twice, and the supernatants combined then centrifuged for 3 min at 2000 g. to remove the nuclei and cell debris. The supernatant was transferred to a clean tube and centrifuged for 10 min at 12,000 g to pellet mitochondria, washed twice resuspended in a small volume of buffer A and stored at −70° C. In order to prepare mitoplasts, the mitochondrial pellet was resuspended in buffer A with the addition of 0.02% (w/v) digitonin. The pellet was resuspended and washed twice in large volumes of digitonin-free buffer A. […] Cells and mitochondria were vortexed and incubated on ice for 15 min. The lysates were then centrifuged at 14,000 g for 15 min and pellets were discarded. The protein concentration of each sample was determined using Bradford Reagent (Sigma-Aldrich). Proteins were resolved by 10-15% SDS-PAGE under reducing conditions and transferred to polyvinylidene difluoride membranes (Millipore Billerica, Ma). […] The membranes were washed three times with TBST for 5 mM before and after each incubation with secondary Ab. The proteins were detected with the appropriate secondary Ab (1 h; room temperature) coupled to HRP-conjugated goat anti-rabbit or anti-mouse Ab and visualized by chemiluminescence according to the manufacturer's instructions (Pierce).

caspase3 = test: Western blot of caspase3 / cleaved caspase3 (apoptosis) in RBL cells; type: cell-based, rat; conditions: activated RBL cells, 40 μM U0126
Experimental: RBL cells and mitochondrial pellets were lysed by the addition of lysis buffer (50 mM Tris-HCl pH 7.4, 1% Nonidet P-40, 0.25% Na-deoxycholate, 150 mM NaCl, 1 mM EDTA, 1 mM PMSF) supplemented with 15 μl protease inhibitor (Sigma-Aldrich). Cells and mitochondria were vortexed and incubated on ice for 15 min. The lysates were then centrifuged at 14,000 g for 15 min and pellets were discarded. The protein concentration of each sample was determined using Bradford Reagent (Sigma-Aldrich). Proteins were resolved by 10-15% SDS-PAGE under reducing conditions and transferred to polyvinylidene difluoride membranes (Millipore Billerica, Ma). The membranes were incubated in 5% fat-free milk and TBST (10 mM Tris-HCl, pH 7.4, 150 mM NaCl, 0.1% Tween 20) for 1 h and then in 5% BSA and TBST containing various dilutions of primary Abs for 18 h at 4° C. The membranes were washed three times with TBST for 5 mM before and after each incubation with secondary Ab. The proteins were detected with the appropriate secondary Ab (1 h; room temperature) coupled to HRP-conjugated goat anti-rabbit or anti-mouse Ab and visualized by chemiluminescence according to the manufacturer's instructions (Pierce).

[5] = biological target: signal transducer and activator of transcription factor 3 (STAT3), mitochondrial, endogenous in RBL cells (rat (RBL cells)) (UniProt P52631); test: cell-based or functional assay
Chain of UniProt P52631 (P52631 2-770 limits assumed): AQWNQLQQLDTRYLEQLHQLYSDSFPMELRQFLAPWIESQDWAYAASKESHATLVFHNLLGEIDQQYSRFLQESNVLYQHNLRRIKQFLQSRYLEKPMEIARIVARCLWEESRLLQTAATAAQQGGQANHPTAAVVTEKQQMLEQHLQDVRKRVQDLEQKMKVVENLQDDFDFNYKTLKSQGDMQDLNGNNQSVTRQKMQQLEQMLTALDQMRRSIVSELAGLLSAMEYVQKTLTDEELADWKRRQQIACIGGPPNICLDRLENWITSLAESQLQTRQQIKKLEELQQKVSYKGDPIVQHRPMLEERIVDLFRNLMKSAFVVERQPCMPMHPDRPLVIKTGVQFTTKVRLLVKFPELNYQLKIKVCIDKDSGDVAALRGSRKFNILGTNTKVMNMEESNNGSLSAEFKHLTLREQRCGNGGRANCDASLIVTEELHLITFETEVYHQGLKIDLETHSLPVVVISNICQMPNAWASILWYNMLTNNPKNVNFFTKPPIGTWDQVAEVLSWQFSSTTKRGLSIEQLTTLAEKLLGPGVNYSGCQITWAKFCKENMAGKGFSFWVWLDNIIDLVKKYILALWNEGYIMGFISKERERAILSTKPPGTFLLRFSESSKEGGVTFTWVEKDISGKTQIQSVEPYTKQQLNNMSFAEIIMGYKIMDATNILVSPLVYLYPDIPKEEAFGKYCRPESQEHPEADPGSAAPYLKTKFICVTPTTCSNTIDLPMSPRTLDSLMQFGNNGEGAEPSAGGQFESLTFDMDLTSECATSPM

Compound	decrease in oxygen consumption (RBL cells [1]; activated RBL cells)	decrease in oxygen consumption (RBL cells [1]; quiescent RBL cells)	reduction in degranulation as compared to control (RBL cells [2]; IgE-Ag stimulated RBL cells, 40 μM U0126, 20 min)	degranulation levels at higher concentrations (RBL cells [2]; RBL cells, U0126 above 40 μM (FIG. 12))	decrease in ATP levels (RBL cells [3])	STAT3 727 serine phosphorylation, total cell level ([4]; RBL cells, 40 μM U0126, activated 5 min)	STAT3 727 serine phosphorylation, mitochondrial level ([4]; activated RBL cells fractionated into cytosol and mitochondria, 40 μM U0126)	caspase3 levels (apoptosis) (caspase3)	ATP levels of activated cells compared to control (empty plasmid) [5]	degranulation (β-hexosaminidase release) [5]
N#CC(=C(/N)Sc1ccccc1N)/C(C#N)=C(\N)Sc1ccccc1N [Mitocur U0126, reference compound]	15.8±4.9%	9.4±2.4%	33.0±0.6%	more profound reduction	3.0±0.4%	significant decrease	decrease	no change		
PIAS3 fused to a mitochondrial target sequence (PIAS3-mito) (from UniProt O54714 13-628)									15.9 % decrease	67.5%
